Molecules are shown by their SMILES. Where a name gives a salt, the structure may show the parent alone. Bounds are passed on as bounds.

The text below walks through data of patent US5250538A, “Indole derivatives and their use” (Novo Nordisk A/S, priority 1990, dated 1993).

Assay [1] deals with T1, 5-HT1A (Rattus norvegicus, UniProt P19327).
T1 construct: from tissue
T1 sequence (P19327 1-422): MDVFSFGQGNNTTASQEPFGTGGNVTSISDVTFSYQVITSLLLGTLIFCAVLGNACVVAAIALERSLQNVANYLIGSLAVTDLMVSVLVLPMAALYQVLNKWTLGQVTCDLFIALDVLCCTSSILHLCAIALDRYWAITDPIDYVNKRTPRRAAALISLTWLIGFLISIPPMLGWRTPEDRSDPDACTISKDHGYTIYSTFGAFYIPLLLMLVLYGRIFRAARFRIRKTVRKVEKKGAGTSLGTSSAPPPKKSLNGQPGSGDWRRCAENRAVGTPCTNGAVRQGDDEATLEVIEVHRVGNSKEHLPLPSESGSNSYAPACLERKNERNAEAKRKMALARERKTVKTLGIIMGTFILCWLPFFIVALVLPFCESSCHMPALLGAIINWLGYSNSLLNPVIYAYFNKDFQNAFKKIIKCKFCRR
Description: 5-HT1A receptor binding in vitro (3H-8-OH-DPAT, rat frontal cortex/hippocampus). Conditions: rat brain, ligand 3H-8-OH-DPAT 2 nM, 10 min 37° C. How it is done: (§1) Compounds of the general formula (I) were tested for binding to 5-HT receptors and compared with known ligands by the following procedure:
(§2) Rat brain tissue (as specified in the table hereinafter) was homogenized using a Polytron homogenizer. The final pellet was resuspended in 125 vol (tissue wet weight) of buffer.
(§3) In all assays incubation was carried out for 10 min at 37° C.
(§4) Detailed conditions for the receptor binding assay in vitro are tabulated below.

Assay [2] addresses T2, 5-HT1B (Rattus norvegicus, UniProt P28564).
T2 construct: from tissue
Description: 5-HT1B receptor binding in vitro (3H-5-HT, 50 nM 8-OH-DPAT included). The method, then: as §1, §2, §3
Labelling of the 5-HT1B receptor was complicated by the fact that the available ligand ^3 H-5-HT is nonselective.
as §4

The test system of assay [3] is 5-HT1 recognition sites. To be noted: background, Ann.Reports Med.Chem. 21 (1986), 42-43; cited from earlier work.
The test system of assay [4] is 5-HT1A receptors. Conditions: background, in words; cited from earlier work.
For assay [5], the system named is 5-HT2 receptor subtype. To be noted: background, in words; cited from earlier work.

T2 sequence (P28564 whole entry): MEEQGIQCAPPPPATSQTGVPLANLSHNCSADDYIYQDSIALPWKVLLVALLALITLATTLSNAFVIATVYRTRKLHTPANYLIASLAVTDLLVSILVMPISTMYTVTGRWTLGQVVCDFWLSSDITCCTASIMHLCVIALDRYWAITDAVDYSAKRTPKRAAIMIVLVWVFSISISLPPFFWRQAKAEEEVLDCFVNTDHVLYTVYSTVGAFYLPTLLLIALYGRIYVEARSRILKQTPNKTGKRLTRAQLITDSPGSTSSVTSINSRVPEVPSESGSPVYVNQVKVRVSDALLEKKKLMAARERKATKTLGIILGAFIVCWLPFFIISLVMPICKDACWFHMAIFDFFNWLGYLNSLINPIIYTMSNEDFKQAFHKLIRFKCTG

The IC50 is the concentration that inhibits the measured activity by half. Low values mean greater potency, high ones weaker potency. Consider `O=C1c2ccccc2C(=O)N1CCCCNCCc1c[nH]c2ccccc12` [Example 2, 1-(4-Phthalimidobutyl-1-amino)-2-(3-indolyl)-ethane, oxalate], for which the values for the IC50 in assay [1] and in assay [2] were 375 nM and 148 nM, respectively.
On to `COc1ccc2[nH]cc(C3=CCNCC3)c2c1` [RU 24969], for which, in assay [3], the “affinity for 5-HT1 recognition sites” value is “high affinity”.
With `CCCN(CCC)C1CCc2cccc(O)c2C1` (stereo not drawn) [Example 8-OH-DPAT, 8-hydroxy-2-(di-n-propylamino)tetralin], the “binds with high affinity to 5-HT1A receptors” value in assay [4] is “high affinity”.
Regarding `O=C(c1ccc(F)cc1)C1CCN(CCn2c(=O)[nH]c3ccccc3c2=O)CC1` [ketanserin], the “high affinity for the 5-HT2 receptor subtype” value in assay [5] is “high affinity”.
Regarding `O=C1C2C3C=CC(C4C=CC43)C2C(=O)N1CCCCNCCc1c[nH]c2ccccc12` (stereo not drawn) [Example 1, 1-(4-(1,3-Dioxo-4,7-etheno-1,3,3a,4,4a,6a,7,7a-octahydro-2 H-cyclobut[f]isoindol-2-yl)butyl-1-amino)-2-(3-indolyl)-ethane, oxalate], the IC50 in assay [1] amounted to 26 nM; in assay [2], 480 nM.
For `COc1ccc2[nH]cc(CCNCCCCN3C(=O)CC4(CCCC4)CC3=O)c2c1` [Example 4, 1-(4-(7,9-Dioxo-8-azaspiro[4,5]decan-8-yl)butyl-1-amino)-2-(5-methoxy-3-indolyl)-ethane, oxalate], in that order: 4 nM and above 1000 nM.
`O=C1c2ccccc2S(=O)(=O)N1CCCCN1CCN(c2ncccn2)CC1` [Ipsapirone, reference compound] registered an IC50 in assay [2] above 1000 nM.
Regarding `COc1ccc2[nH]cc(CCNCCCCN3C(=O)C4C5C=CC(C6C=CC65)C4C3=O)c2c1` (stereo not drawn) [Example 5, 1-(4-(1,3-Dioxo-4,7-etheno-1,3,3a,4,4a,6a,7,7a-octa-hydro-2 H-cyclobut(f]isoindol-2-yl)butyl-1-amino)-2(5-methoxy-3-indolyl)-ethand, oxalate], the figures for the IC50 in assay [1] and in assay [2] were 2.5 nM and above 1000 nM, respectively.
